# Measurements taken from patent US20240066027A1 (DOMAIN THERAPEUTICS, priority 2020, published 2024).
# Counter-ions that a name gives are not always drawn.
# Biological target: T1, human PAR-2 (hPAR-2) receptor expressed in HEK-293 T cells in an endogenous manner (Homo sapiens, UniProt P55085)
# T1 construct: human PAR-2 (hPAR-2) receptor expressed in HEK-293 T cells in an endogenous manner; endogenous in cells; host or cells: HEK-293 T cells
# T1 sequence (P55085 26-397): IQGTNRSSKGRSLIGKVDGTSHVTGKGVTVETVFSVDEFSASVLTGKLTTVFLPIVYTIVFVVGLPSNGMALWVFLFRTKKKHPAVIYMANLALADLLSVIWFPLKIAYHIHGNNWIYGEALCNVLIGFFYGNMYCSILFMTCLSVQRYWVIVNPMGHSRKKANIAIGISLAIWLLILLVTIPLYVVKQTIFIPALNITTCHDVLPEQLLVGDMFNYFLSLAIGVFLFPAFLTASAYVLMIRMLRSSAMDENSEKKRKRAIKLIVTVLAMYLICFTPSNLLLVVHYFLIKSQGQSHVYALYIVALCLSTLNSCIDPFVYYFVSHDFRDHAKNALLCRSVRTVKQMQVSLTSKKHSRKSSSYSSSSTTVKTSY
# Assay: In vitro human PAR-2 functional antagonist activity using calcium assays (Fluo4AM, FLIPR Tetra)
# Type: cell-based
# Conditions: HEK-293 T cells stimulated by an EC80 of the 2-Furoyl-LIGRLO-NH2 peptide after 10 min incubation with compound; 20 concentrations, duplicate, two independent experiments
# Outline: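 Fluo4AM-loaded HEK-293 T cells were exposed to compound for 10 min to read agonist effect. They were then stimulated with an EC80 of 2-Furoyl-LIGRLO-NH2 and intracellular calcium was recorded for 5 more min on FLIPR. Antagonism was scored against buffer basal and EC80 agonist-alone signals.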
row,Structure (SMILES),IC50 [nM]
1,Cc1cc(N2CCN(C(=O)c3ccc4c(-c5ccc(Cl)c(F)c5)cn(C5CCOCC5)c4n3)C(C)(C)C2)nc(C)c1C(=O)O [Example 98],< 20
2,"Cc1cc(N2CCN(C(=O)c3ccc4c(-c5ccc(Cl)c(F)c5)cn(C(C)(C)C)c4n3)CC2)nc(C)c1C(=O)O [Example 99, 6-(4-(1-(tert-butyl)-3-(4-chloro-3-fluorophenyl)-1H-pyrrolo[2,3-b]pyridine-6-carbonyl)piperazin-1-yl)-2,4-dimethylnicotinic acid]",< 20
3,"Cc1cc(NC2CCN(C(=O)c3ccc4c(-c5ccc(Cl)c(F)c5)cn(C(C)(C)C)c4n3)CC2)nc(C)c1C(=O)O [Example 100, 6-((1-(1-(tert-butyl)-3-(4-chloro-3-fluorophenyl)-1H-pyrrolo[2,3-b]pyridine-6-carbonyl)piperidin-4-yl)amino)-2,4-dimethylnicotinic acid]",20 to 10000
4,"Cc1cc(N2CC3CN(C(=O)c4ccc5c(-c6ccc(Cl)c(F)c6)cn(C(C)(C)C)c5n4)C3C2)nc(C)c1C(=O)O (stereo not drawn) [Example 101, 6-(6-(1-(tert-butyl)-3-(4-chloro-3-fluorophenyl)-1H-pyrrolo[2,3-b]pyridine-6-carbonyl)-3,6-diazabicyclo[3.2.0]heptan-3-yl)-2,4-dimethylnicotinic acid]",20 to 10000
5,"Cc1cc(N2CCN(C(=O)c3ccc4c(-c5ccc(Cl)c(F)c5)cn(C(C)(C)CO)c4n3)C(C)(C)C2)nc(C)c1C(=O)O [Example 102, 6-(4-(3-(4-chloro-3-fluorophenyl)-1-(1-hydroxy-2-methylpropan-2-yl)-1H-pyrrolo[2,3-b]pyridine-6-carbonyl)-3,3-dimethylpiperazin-1-yl)-2,4-dimethylnicotinic acid]",20 to 10000
6,"Cc1cc(N2CCN(C(=O)c3ccc4c(-c5ccc(Cl)c(F)c5)cn(Cc5cnccn5)c4n3)C(C)(C)C2)nc(C)c1C(=O)O [Example 103, 6-(4-(3-(4-chloro-3-fluorophenyl)-1-(pyrazin-2-ylmethyl)-1H-pyrrolo[2,3-b]pyridine-6-carbonyl)-3,3-dimethylpiperazin-1-yl)-2,4-dimethylnicotinic acid]",20 to 10000
7,"Cc1cc(N2CCN(C(=O)c3ccc4c(-c5ccc(Cl)c(F)c5)c(C)n(CC(C)C)c4n3)C(C)(C)C2)nc(C)c1C(=O)O [Example 104, 6-(4-(3-(4-chloro-3-fluorophenyl)-1-isobutyl-2-methyl-1H-pyrrolo[2,3-b]pyridine-6-carbonyl)-3,3-dimethylpiperazin-1-yl)-2,4-dimethylnicotinic acid]",< 20
8,"COc1ccc(-c2cn(CC(C)C)c3nc(C(=O)N4CCNC(=O)C4(C)C)ccc23)cn1 [Example 105, 4-(1-isobutyl-3-(6-methoxypyridin-3-yl)-1H-pyrrolo[2,3-b]pyridine-6-carbonyl)-3,3-dimethylpiperazin-2-one]",20 to 10000
9,"CC(C)Cn1cc(-c2ccc(C#N)cc2)c2ccc(C(=O)N3CCNC(=O)C3(C)C)nc21 [Example 106, 4-(6-(2,2-dimethyl-3-oxopiperazine-1-carbonyl)-1-isobutyl-1H-pyrrolo[2,3-b]pyridin-3-yl)benzonitrile]",20 to 10000
10,"CC(C)Cn1cc(-c2ccc(Cl)c(Cl)c2)c2ccc(C(=O)N3CCNC(=O)C3(C)C)nc21 [Example 107, 4-(3-(3,4-dichlorophenyl)-1-isobutyl-1H-pyrrolo[2,3-b]pyridine-6-carbonyl)-3,3-dimethylpiperazin-2-one]",< 20
11,"CC(C)Cn1cc(-c2ccccc2OC(F)(F)F)c2ccc(C(=O)N3CCNC(=O)C3(C)C)nc21 [Example 112, 4-(1-isobutyl-3-(2-(trifluoromethoxy)phenyl)-1H-pyrrolo[2,3-b]pyridine-6-carbonyl)-3,3-dimethylpiperazin-2-one]",20 to 10000
12,"CC(C)Cn1cc(-c2ccccc2F)c2ccc(C(=O)N3CCNC(=O)C3(C)C)nc21 [Example 113, 4-(3-(2-fluorophenyl)-1-isobutyl-1H-pyrrolo[2,3-b]pyridine-6-carbonyl)-3,3-dimethylpiperazin-2-one]",20 to 10000
13,"CC(C)Cn1cc(-c2cccc(F)c2)c2ccc(C(=O)N3CCNC(=O)C3(C)C)nc21 [Example 114, 4-(3-(3-fluorophenyl)-1-isobutyl-1H-pyrrolo[2,3-b]pyridine-6-carbonyl)-3,3-dimethylpiperazin-2-one]",20 to 10000
14,"CC(C)Cn1cc(-c2ccc(Cl)cc2F)c2ccc(C(=O)N3CCNC(=O)C3(C)C)nc21 [Example 115, 4-(3-(4-chloro-2-fluorophenyl)-1-isobutyl-1H-pyrrolo[2,3-b]pyridine-6-carbonyl)-3,3-dimethylpiperazin-2-one]",20 to 10000
15,"CC(C)Cn1cc(-c2ccc(OC(F)(F)F)cc2)c2ccc(C(=O)N3CCNC(=O)C3(C)C)nc21 [Example 116, 4-(1-isobutyl-3-(4-(trifluoromethoxy)phenyl)-1H-pyrrolo[2,3-b]pyridine-6-carbonyl)-3,3-dimethylpiperazin-2-one]",20 to 10000
16,"CC(C)Cn1cc(-c2cccc(C#N)c2)c2ccc(C(=O)N3CCNC(=O)C3(C)C)nc21 [Example 117, 3-(6-(2,2-dimethyl-3-oxopiperazine-1-carbonyl)-1-isobutyl-1H-pyrrolo[2,3-b]pyridin-3-yl)benzonitrile]",20 to 10000
17,"Cc1cccc(-c2cn(CC(C)C)c3nc(C(=O)N4CCNC(=O)C4(C)C)ccc23)c1 [Example 118, 4-(1-isobutyl-3-(m-tolyl)-1H-pyrrolo[2,3-b]pyridine-6-carbonyl)-3,3-dimethylpiperazin-2-one]",20 to 10000
18,"Cc1cc(N2CCN(C(=O)c3ccc4c(-c5ccc(Cl)c(F)c5)c(C)n(C)c4n3)C(C)(C)C2)nc(C)c1C(=O)O [Example 119, 6-(4-(3-(4-chloro-3-fluorophenyl)-1,2-dimethyl-1H-pyrrolo[2,3-b]pyridine-6-carbonyl)-3,3-dimethylpiperazin-1-yl)-2,4-dimethylnicotinic acid]",20 to 10000
19,"CC1(C)C(=O)NCCN1C(=O)c1ccc2c(-c3ccc(Cl)c(F)c3)cn(Cc3ccncc3)c2n1 [Example 120, 4-(3-(4-chloro-3-fluorophenyl)-1-(pyridin-4-ylmethyl)-1H-pyrrolo[2,3-b]pyridine-6-carbonyl)-3,3-dimethylpiperazin-2-one]",20 to 10000
20,"Cc1cc(N2CCN(C(=O)c3ccc4c(-c5ccc(Cl)c(F)c5)cn(C5(C)CCC5)c4n3)C(C)(C)C2)nc(C)c1C(=O)O [Example 121, 6-(4-(3-(4-chloro-3-fluorophenyl)-1-(1-methylcyclobutyl)-1H-pyrrolo[2,3-b]pyridine-6-carbonyl)-3,3-dimethylpiperazin-1-yl)-2,4-dimethylnicotinic acid]",< 20
21,"Cc1cc(N2CCN(C(=O)c3ccc4c(-c5ccc(Cl)c(F)c5)cn(C)c4n3)C(C)(C)C2)nc(C)c1C(=O)O [Example 122, 6-(4-(3-(4-chloro-3-fluorophenyl)-1-methyl-1H-pyrrolo[2,3-b]pyridine-6-carbonyl)-3,3-dimethylpiperazin-1-yl)-2,4-dimethylnicotinic acid hydrochloride]",20 to 10000
22,"Cc1cc(NC(=O)C2CCN(C(=O)c3ccc4c(-c5ccc(Cl)c(F)c5)cn(C(C)(C)C)c4n3)CC2)nc(C)c1C(=O)O [Example 123, 6-(1-(1-(tert-butyl)-3-(4-chloro-3-fluorophenyl)-1H-pyrrolo[2,3-b]pyridine-6-carbonyl)piperidine-4-carboxamido)-2,4-dimethylnicotinic acid]",20 to 10000
23,"CC(C)(C)n1cc(-c2ccc(Cl)c(F)c2)c2ccc(C(=O)N3C[C@@H]4[C@@H](CC(=O)O)[C@@H]4C3)nc21 [Example 124, 2-((1R,5S,6s)-3-(1-(tert-butyl)-3-(4-chloro-3-fluorophenyl)-1H-pyrrolo[2,3-b]pyridine-6-carbonyl)-3-azabicyclo[3.1.0]hexan-6-yl)acetic acid]",< 20
24,"CC(C)(C)n1cc(-c2ccc(Cl)c(F)c2)c2ccc(C(=O)N3CCC(CC(=O)O)CC3)nc21 [Example 125, 2-(1-(1-(tert-butyl)-3-(4-chloro-3-fluorophenyl)-1H-pyrrolo[2,3-b]pyridine-6-carbonyl)piperidin-4-yl)acetic acid]",20 to 10000
25,"CCOCC(C)(C)n1cc(-c2ccc(Cl)c(F)c2)c2ccc(C(=O)N3CCN(c4cc(C)c(C(=O)O)c(C)n4)CC3(C)C)nc21 [Example 126, 6-(4-(3-(4-chloro-3-fluorophenyl)-1-(1-ethoxy-2-methylpropan-2-yl)-1H-pyrrolo[2,3-b]pyridine-6-carbonyl)-3,3-dimethylpiperazin-1-yl)-2,4-dimethylnicotinic acid]",< 20
26,"Cc1cc(N2CCCN(C(=O)c3ccc4c(-c5ccc(Cl)c(F)c5)cn(C(C)(C)C)c4n3)CC2)nc(C)c1C(=O)O [Example 127, 6-(4-(1-(tert-butyl)-3-(4-chloro-3-fluorophenyl)-1H-pyrrolo[2,3-b]pyridine-6-carbonyl)-1,4-diazepan-1-yl)-2,4-dimethylnicotinic acid]",20 to 10000
27,"Cc1cc(N2CCC3(CCN(C(=O)c4ccc5c(-c6ccc(Cl)c(F)c6)cn(C(C)(C)C)c5n4)C3)C2)nc(C)c1C(=O)O (stereo not drawn) [Example 128, 6-(7-(1-(tert-butyl)-3-(4-chloro-3-fluorophenyl)-1H-pyrrolo[2,3-b]pyridine-6-carbonyl)-2,7-diazaspiro[4.4]nonan-2-yl)-2,4-dimethylnicotinic acid]",> 10000
